# Measurements taken from ChEMBL document CHEMBL3784938, “Novel heterocyclic ring-fused oleanolic acid derivatives as osteoclast inhibitors for osteoporosis” (Medchemcomm, 2016).
# Activity calls are given as the source filed them. No cut-off for these calls is given here.
# What was measured:
# RAW264.7 [1] = assay: cells; conditions: Mus musculus, RAW264.7, 120 h
# Description: Antiosteoclast activity in mouse RAW264.7 cells assessed as inhibition of RANKL-induced osteoclast differentiation after 5 days by TRAP assay
# [2] = Cytotoxicity against mouse RAW264.7 cells assessed as inhibition of cell viability at 2 uM after 24 hrs by MTT assay; type: cell-based; conditions: read-out: INH
# [3] = Cytotoxicity against mouse RAW264.7 cells assessed as inhibition of cell viability at 10 uM after 24 hrs by MTT assay; type: cell-based; conditions: read-out: INH
# RAW264.7 [4] = assay: Antiosteoclast activity in mouse RAW264.7 cells assessed as inhibition of RANKL-induced osteoclast differentiation at 20 uM after 5 days by TRAP assay; type: functional; conditions: RAW264.7, 120 h
# [5] = Cytotoxicity against mouse RAW264.7 cells assessed as inhibition of cell viability at 5 uM after 24 hrs by MTT assay; type: cell-based; conditions: read-out: INH
# RAW264.7 [6] = assay: Antiosteoclast activity in mouse RAW264.7 cells assessed as inhibition of RANKL-induced osteoclast differentiation at 2 uM after 5 days by TRAP assay; type: functional; conditions: RAW264.7, 120 h
# [7] = Cytotoxicity against mouse RAW264.7 cells assessed as inhibition of cell viability at 20 uM after 24 hrs by MTT assay; type: cell-based; conditions: read-out: INH
# RAW264.7 [8] = assay: Downregulation of RANKL-induced CathK mRNA expression in mouse RAW264.7 cells at 1 to 5 uM after 4 days by RT-qPCR analysis; type: functional, cell-based
# RAW264.7 [9] = assay: Downregulation of RANKL-induced TRAP mRNA expression in mouse RAW264.7 cells at 1 to 5 uM after 4 days by RT-qPCR analysis; type: functional, cell-based
# RAW264.7 [10] = assay: Downregulation of RANKL-induced NFATc1 mRNA expression in mouse RAW264.7 cells at 5 uM after 2 days by RT-qPCR analysis; type: functional, cell-based
# RAW264.7 [11] = assay: Downregulation of RANKL-induced CTR mRNA expression in mouse RAW264.7 cells at 1 to 5 uM after 4 days by RT-qPCR analysis; type: functional, cell-based
# Rattus norvegicus [12] = assay: Antiosteoporotic effect in ovariectomy rat model assessed as increase in bone mineral density of lumbar spine L3 to L5 at 10 mg/kg/day, po administered for 4 weeks by dual-energy X-ray absorptiometry relative to control; type: functional, organism-based
# Rattus norvegicus [13] = assay: Antiosteoporotic effect in ovariectomy rat model assessed as increase in bone mineral density of lumbar spine L3 to L5 at 0.1 mg/kg/day, po administered for 4 weeks by dual-energy X-ray absorptiometry relative to control; type: functional, organism-based
# Rattus norvegicus [14] = assay: Toxicity in ovariectomy rat model assessed as undeveloped endometrial gland at 0.1 to 10 mg/kg/day, po administered for 4 weeks by haematoxylin/eosin staining based microscopy; type: organism-based; conditions: in vivo, 672 h
# Rattus norvegicus [15] = assay: Toxicity in ovariectomy rat model assessed as undeveloped endometrial luminal epithelium at 0.1 to 10 mg/kg/day, po administered for 4 weeks by haematoxylin/eosin staining based microscopy; type: organism-based; conditions: in vivo, 672 h
# Rattus norvegicus [16] = assay: Toxicity in ovariectomy rat model assessed as reduction in uterine weight at 0.1 to 10 mg/kg/day, po administered for 4 weeks; type: organism-based; conditions: in vivo, 672 h
# RAW264.7 [17] = assay: Antiosteoclast activity in mouse RAW264.7 cells assessed as reduction in multinucleated osteoclasts at 2 to 20 uM after 5 days by TRAP assay; type: functional, cell-based
# RAW264.7 [18] = assay: Downregulation of RANKL-induced c-Fos mRNA expression in mouse RAW264.7 cells at 1 to 5 uM after 2 days by RT-qPCR analysis; type: functional, cell-based
# RAW264.7 [19] = assay: Downregulation of RANKL-induced c-Fos protein expression in mouse RAW264.7 cells at 5 uM after 2 days by Western blot analysis; type: functional, cell-based
# Rattus norvegicus [20] = assay: Antiosteoporotic effect in ovariectomy rat model assessed as increase in bone mineral density of lumbar spine L3 to L5 at 1 mg/kg/day, po administered for 4 weeks by dual-energy X-ray absorptiometry relative to control; type: functional, organism-based
# RAW264.7 [21] = assay: Downregulation of RANKL-induced NFATc1 protein expression in mouse RAW264.7 cells at 5 uM after 2 days by Western blot analysis; type: functional, cell-based
Compound,IC50 (RAW264.7 [1]),"cytotoxicity at 24 h, 2 µM [2]","cytotoxicity at 24 h, 10 µM [3]",inhibition at 20 µM (RAW264.7 [4]),"cytotoxicity at 24 h, 5 µM [5]",inhibition at 2 µM (RAW264.7 [6]),"cytotoxicity at 24 h, 20 µM [7]",Activity (Rattus norvegicus [20]),also measured
COc1ccc(S(=O)(=O)n2cc3c(n2)C(C)(C)[C@@H]2CC[C@]4(C)[C@H](CC=C5[C@@H]6CC(C)(C)CC[C@]6(C(=O)NCCN6CCCCC6)CC[C@]54C)[C@@]2(C)C3)cc1,88 nM,0%,67.5%,100%,0%,100%,72.9%,–,–
NCCCC(O)(P(=O)(O)O)P(=O)(O)O [ALENDRONATE SODIUM],84 nM,–,–,–,–,93.2%,–,Active,–

# Now from value to compound, other results behind:
IC50 (RAW264.7 [1]),Compound,"cytotoxicity at 24 h, 2 µM [2]","cytotoxicity at 24 h, 10 µM [3]",inhibition at 20 µM (RAW264.7 [4]),"cytotoxicity at 24 h, 5 µM [5]",inhibition at 2 µM (RAW264.7 [6]),"cytotoxicity at 24 h, 20 µM [7]",Activity (Rattus norvegicus [20]),also measured
130 nM,COc1ccc(S(=O)(=O)n2cc3c(n2)C(C)(C)[C@@H]2CC[C@]4(C)[C@H](CC=C5[C@@H]6CC(C)(C)CC[C@]6(C(=O)NCCN6CCCCC6)CC[C@]54C)[C@@]2(C)C3)cc1OC,0%,52.6%,100%,0%,100%,71.1%,–,–
24 nM,COc1ccc(S(=O)(=O)n2cc3c(n2)C(C)(C)[C@@H]2CC[C@]4(C)[C@H](CC=C5[C@@H]6CC(C)(C)CC[C@]6(C(=O)NC6CCN(Cc7ccccc7)CC6)CC[C@]54C)[C@@]2(C)C3)cc1,0%,6.6%,100%,0%,90%,58.2%,Active,inhibition (RAW264.7 [8]): Active; inhibition (RAW264.7 [9]): Active; inhibition (RAW264.7 [10]): Active; inhibition (RAW264.7 [11]): Active; Activity (Rattus norvegicus [12]): Active; Activity (Rattus norvegicus [13]): inactive; Activity (Rattus norvegicus [14]): Non-toxic; Activity (Rattus norvegicus [15]): Non-toxic; Activity (Rattus norvegicus [16]): Non-toxic; inhibition (RAW264.7 [17]): Active; inhibition (RAW264.7 [18]): Active; inhibition (RAW264.7 [19]): Active; inhibition (RAW264.7 [21]): Active
78 nM,CC1(C)CC[C@]2(C(=O)NCCN3CCCCC3)CC[C@]3(C)C(=CC[C@@H]4[C@@]5(C)Cc6cn(S(=O)(=O)c7ccc(Br)cc7)nc6C(C)(C)[C@@H]5CC[C@]43C)[C@@H]2C1,0%,67.2%,100%,0%,100%,70.8%,–,–
